These compounds were tested on KU-812 (assay: cell viability (% survival relative to DMSO control, bortezomib = 0%); higher = less cytotoxic). Conditions: 10000 nM; 72 h.
Summary of the method: (§1)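 Percent survival figures are means of duplicate wells. They were obtained by CellTiter-Glo luminescence after 10 AML and 5 CML cell lines spent 72 h at 37 °C with 5% CO2 in 384-well plates with compounds at 1, 10, 100, 1000 or 10000 nM. Vehicle was set to 100% and a 10 µM positive control to 0%.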

Going from O=C(O)CCCCC(CCSCc1ccccc1)SCc1ccccc1 (stereo unspecified) [CPI-613] to CCN(CC)CCCC(C)Nc1ccnc2cc(Cl)ccc12 (stereo unspecified) [Chloroquine], the cell viability rises from 89.7% to 96.9%.

Going from CC(C)c1cc2c(c(O)c1O)[C@@]1(C(=O)O)CCCC(C)(C)[C@@H]1CC2 [Carnosic acid] to Nc1nc(Cl)nc2c1ncn2[C@H]1C[C@H](O)[C@@H](CO)O1 [Cladribine], the cell viability falls from 74.1% to 5.32%.

Compound NCCCC(N)(C(=O)O)C(F)F (stereo unspecified) [Difluoromethylornithine] has a cell viability of 105%.

The compounds below were run on SHI-1 in the same assay as above. Conditions: 1 nM; 72 h.
Summary of the method: as §1

First: COc1ccc(S(=O)(=O)N2CCN(S(=O)(=O)c3ccc4c(c3)OCCO4)CC2)cc1 [BML283]
Second: O=C1O/C(=C/Br)CCC1c1cccc2ccccc12 (stereo unspecified) [Bromoenol Lactone]
The cell viability of the first is higher: 110% for the first, 102% for the second.

Going from O=c1cc(-c2ccccc2)oc2cc(O)c(O)c(O)c12 [Baicalein] to O=c1oc2c(O)c(O)cc3c(=O)oc4c(O)c(O)cc1c4c23 [Benzoaric Acid], the cell viability falls from 109% to 97.7%.

Going from COC(=O)[C@]12CCC(C)(C)C[C@H]1[C@H]1C(=O)C=C3[C@@]4(C)C=C(C#N)C(=O)C(C)(C)[C@@H]4CC[C@@]3(C)[C@]1(C)CC2 [Bardoxolone methyl] to CC(C)c1cc2c(c(O)c1O)[C@@]1(C(=O)O)CCCC(C)(C)[C@@H]1CC2 [Carnosic acid], the cell viability falls from 107% to 101%.

Going from Cc1c(-c2ccc(-c3ccccc3F)cc2)nc2ccc(F)cc2c1C(=O)O [Brequinar] to O=C(O)CCCCC(CCSCc1ccccc1)SCc1ccccc1 (stereo unspecified) [CPI-613], the cell viability rises from 85.3% to 89.9%.

Going from CCN(CC)CCCC(C)Nc1ccnc2cc(Cl)ccc12 (stereo unspecified) [Chloroquine] to Nc1nc(Cl)nc2c1ncn2[C@H]1C[C@H](O)[C@@H](CO)O1 [Cladribine], the cell viability falls from 108% to 87.7%.

With NCCCC(N)(C(=O)O)C(F)F (stereo unspecified) [Difluoromethylornithine] the cell viability was 100%.

Same assay, conditions: 10 nM; 72 h

Compared with COc1ccc(S(=O)(=O)N2CCN(S(=O)(=O)c3ccc4c(c3)OCCO4)CC2)cc1 [BML283], O=C1O/C(=C/Br)CCC1c1cccc2ccccc12 (stereo unspecified) [Bromoenol Lactone] is lower in cell viability: 94.8% for the first, 92.9% for the second.

Going from O=c1cc(-c2ccccc2)oc2cc(O)c(O)c(O)c12 [Baicalein] to O=c1oc2c(O)c(O)cc3c(=O)oc4c(O)c(O)cc1c4c23 [Benzoaric Acid], the cell viability rises from 92% to 106%.

First: COC(=O)[C@]12CCC(C)(C)C[C@H]1[C@H]1C(=O)C=C3[C@@]4(C)C=C(C#N)C(=O)C(C)(C)[C@@H]4CC[C@@]3(C)[C@]1(C)CC2 [Bardoxolone methyl]
Second: CC(C)c1cc2c(c(O)c1O)[C@@]1(C(=O)O)CCCC(C)(C)[C@@H]1CC2 [Carnosic acid]
The cell viability of the first is lower: 103% for the first, 112% for the second.

Compared with Cc1c(-c2ccc(-c3ccccc3F)cc2)nc2ccc(F)cc2c1C(=O)O [Brequinar], O=C(O)CCCCC(CCSCc1ccccc1)SCc1ccccc1 (stereo unspecified) [CPI-613] is higher in cell viability: 99% for the first, 110% for the second.

First: CCN(CC)CCCC(C)Nc1ccnc2cc(Cl)ccc12 (stereo unspecified) [Chloroquine]
Second: Nc1nc(Cl)nc2c1ncn2[C@H]1C[C@H](O)[C@@H](CO)O1 [Cladribine]
The cell viability of the first is higher: 106% for the first, 88.7% for the second.

Compound NCCCC(N)(C(=O)O)C(F)F (stereo unspecified) [Difluoromethylornithine] has a cell viability of 100%.

Same assay, conditions: 100 nM; 72 h

Going from COc1ccc(S(=O)(=O)N2CCN(S(=O)(=O)c3ccc4c(c3)OCCO4)CC2)cc1 [BML283] to O=C1O/C(=C/Br)CCC1c1cccc2ccccc12 (stereo unspecified) [Bromoenol Lactone], the cell viability rises from 96.9% to 108%.

First: O=c1cc(-c2ccccc2)oc2cc(O)c(O)c(O)c12 [Baicalein]
Second: O=c1oc2c(O)c(O)cc3c(=O)oc4c(O)c(O)cc1c4c23 [Benzoaric Acid]
The cell viability of the first is higher: 126% for the first, 99.7% for the second.

Compared with COC(=O)[C@]12CCC(C)(C)C[C@H]1[C@H]1C(=O)C=C3[C@@]4(C)C=C(C#N)C(=O)C(C)(C)[C@@H]4CC[C@@]3(C)[C@]1(C)CC2 [Bardoxolone methyl], CC(C)c1cc2c(c(O)c1O)[C@@]1(C(=O)O)CCCC(C)(C)[C@@H]1CC2 [Carnosic acid] is lower in cell viability: 118% for the first, 95% for the second.

First: Cc1c(-c2ccc(-c3ccccc3F)cc2)nc2ccc(F)cc2c1C(=O)O [Brequinar]
Second: O=C(O)CCCCC(CCSCc1ccccc1)SCc1ccccc1 (stereo unspecified) [CPI-613]
The cell viability of the first is lower: 103% for the first, 108% for the second.

First: CCN(CC)CCCC(C)Nc1ccnc2cc(Cl)ccc12 (stereo unspecified) [Chloroquine]
Second: Nc1nc(Cl)nc2c1ncn2[C@H]1C[C@H](O)[C@@H](CO)O1 [Cladribine]
The cell viability of the first is higher: 96.6% for the first, 13.6% for the second.

NCCCC(N)(C(=O)O)C(F)F (stereo unspecified) [Difluoromethylornithine] gave a cell viability of 90.9%.

Same assay, conditions: 1000 nM; 72 h

Going from COc1ccc(S(=O)(=O)N2CCN(S(=O)(=O)c3ccc4c(c3)OCCO4)CC2)cc1 [BML283] to O=C1O/C(=C/Br)CCC1c1cccc2ccccc12 (stereo unspecified) [Bromoenol Lactone], the cell viability falls from 96.3% to 91.2%.

Compared with O=c1cc(-c2ccccc2)oc2cc(O)c(O)c(O)c12 [Baicalein], O=c1oc2c(O)c(O)cc3c(=O)oc4c(O)c(O)cc1c4c23 [Benzoaric Acid] is lower in cell viability: 97.2% for the first, 94.3% for the second.

Compared with COC(=O)[C@]12CCC(C)(C)C[C@H]1[C@H]1C(=O)C=C3[C@@]4(C)C=C(C#N)C(=O)C(C)(C)[C@@H]4CC[C@@]3(C)[C@]1(C)CC2 [Bardoxolone methyl], CC(C)c1cc2c(c(O)c1O)[C@@]1(C(=O)O)CCCC(C)(C)[C@@H]1CC2 [Carnosic acid] is higher in cell viability: 106% for the first, 112% for the second.

First: Cc1c(-c2ccc(-c3ccccc3F)cc2)nc2ccc(F)cc2c1C(=O)O [Brequinar]
Second: O=C(O)CCCCC(CCSCc1ccccc1)SCc1ccccc1 (stereo unspecified) [CPI-613]
The cell viability of the first is higher: 111% for the first, 95.8% for the second.

Compared with CCN(CC)CCCC(C)Nc1ccnc2cc(Cl)ccc12 (stereo unspecified) [Chloroquine], Nc1nc(Cl)nc2c1ncn2[C@H]1C[C@H](O)[C@@H](CO)O1 [Cladribine] is lower in cell viability: 89.8% for the first, 0.494% for the second.

With NCCCC(N)(C(=O)O)C(F)F (stereo unspecified) [Difluoromethylornithine] the cell viability was 104%.

Same assay, conditions: 10000 nM; 72 h

Compared with COc1ccc(S(=O)(=O)N2CCN(S(=O)(=O)c3ccc4c(c3)OCCO4)CC2)cc1 [BML283], O=C1O/C(=C/Br)CCC1c1cccc2ccccc12 (stereo unspecified) [Bromoenol Lactone] is lower in cell viability: 103% for the first, 83.2% for the second.

Going from O=c1cc(-c2ccccc2)oc2cc(O)c(O)c(O)c12 [Baicalein] to O=c1oc2c(O)c(O)cc3c(=O)oc4c(O)c(O)cc1c4c23 [Benzoaric Acid], the cell viability rises from 82.8% to 120%.

Going from COC(=O)[C@]12CCC(C)(C)C[C@H]1[C@H]1C(=O)C=C3[C@@]4(C)C=C(C#N)C(=O)C(C)(C)[C@@H]4CC[C@@]3(C)[C@]1(C)CC2 [Bardoxolone methyl] to CC(C)c1cc2c(c(O)c1O)[C@@]1(C(=O)O)CCCC(C)(C)[C@@H]1CC2 [Carnosic acid], the cell viability rises from 94.3% to 108%.

Compared with Cc1c(-c2ccc(-c3ccccc3F)cc2)nc2ccc(F)cc2c1C(=O)O [Brequinar], O=C(O)CCCCC(CCSCc1ccccc1)SCc1ccccc1 (stereo unspecified) [CPI-613] is higher in cell viability: 63.9% for the first, 107% for the second.

First: CCN(CC)CCCC(C)Nc1ccnc2cc(Cl)ccc12 (stereo unspecified) [Chloroquine]
Second: Nc1nc(Cl)nc2c1ncn2[C@H]1C[C@H](O)[C@@H](CO)O1 [Cladribine]
The cell viability of the first is higher: 92% for the first, -0.0158% for the second.

NCCCC(N)(C(=O)O)C(F)F (stereo unspecified) [Difluoromethylornithine] gave a cell viability of 106%.

The compounds below were run on KG-1 in the same assay as above. Conditions: 1 nM; 72 h.
Summary of the method: as §1

COc1ccc(S(=O)(=O)N2CCN(S(=O)(=O)c3ccc4c(c3)OCCO4)CC2)cc1 [BML283] showed a cell viability of 92.7%.
